Results on ten molecules are retold here after PubChem BioAssay (NCI).

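Dose response: 5 concentrations. Exposure: 48 h. Format: 96-well plates. Endpoint: linear interpolation; highest concentration if not reached. The concentration for full growth arrest is given as TGI.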

Common to all, as to test: growth of human tumour cells (NCI), 48 h
Test [1] has as its system DU-145 prostate.
The test system of test [2] is U251 CNS.
The subject of test [3] is EKVX NSCLC.
Test [4] deals with KM12 colon.
The subject of test [5] is HCC-2998 colon.
Test [6] relates to M14 melanoma.
For test [7], the system named is SK-OV-3 ovarian.
Test [8] has as its system MALME-3M melanoma.
The test system of test [9] is OVCAR-5 ovarian.
Test [10] has as its system SNB-75 CNS.
The test system of test [11] is SNB-19 CNS.

Consider `CCOC(=O)c1c(SCCN2CCCC2)n(-c2ccccc2)c(=S)n(-c2ccccc2)c1=O`, for which the TGI amounted to 3.11 µM in test [1]; 16.7 µM in test [2]; 27 µM in test [3]; 29.8 µM in [4]; 3.53 µM in test [5]; 3.25 µM in test [6]. Further, the TGI is 34.5 µM in test [7]; 3.36 µM in test [8]; above 59.5 µM in test [9]; 19.5 µM in [10]; 31.2 µM in [11].

`Cc1ccc(C(=O)Nc2ccc(CP(=O)(O)O)cc2)cc1NC(=O)c1cccc(NC(=O)Nc2cccc(C(=O)Nc3cc(C(=O)Nc4ccc(CP(=O)(O)O)cc4)ccc3C)c2)c1`: the TGI in test [1], in test [2], in test [3], in test [4], in test [5] and in test [6] was above 100 µM each time. Besides, the TGI in test [7], in test [8], in test [9], in test [10] and in [11] was above 100 µM each time.

Take `N#Cc1c2c(c(Nc3ccc(F)cc3)n3c1nc1ccccc13)CCC2`: the TGI turned out to be 13.9 µM in test [1]; 8.01 µM in [2]; 26 µM in test [3]; 23.7 µM in test [4]; 41.9 µM in test [5]; 18.4 µM in test [6]. The TGI is 26.8 µM in test [7]; 19.9 µM in [8]; 13.9 µM in test [9]; 16.7 µM in [10]; 22.1 µM in [11].

Take `CC1CC(C#N)=C2NCCCCN2C1=O` (centres undefined): the TGI in test [1], in test [2], in test [3], in test [4], in test [5] and in test [6] was above 100 µM each time. Besides, the TGI in [7], in test [8], in [10] and in [11] was above 100 µM in each case.

For `COC(c1ccc(C(C)(C)C)cc1)(c1ccc(C(C)(C)C)cc1)c1cc(C(O)(c2cc(C(OC)(c3ccc(C(C)(C)C)cc3)c3ccc(C(C)(C)C)cc3)c(C)cc2C)c2cc(C(OC)(c3ccc(C(C)(C)C)cc3)c3ccc(C(C)(C)C)cc3)c(C)cc2C)c(C)cc1C`, the TGI in [1], in test [2], in test [3], in [5], in test [6] and in [7] was above 100 µM throughout. Besides, the TGI in test [8], in [9] and in [10] was above 100 µM each time.

With `O=C1N[C@@H]2c3c(csc3Br)C(=O)[C@@H]2O1`, the TGI was above 100 µM in test [1]; 69.2 µM in test [2]; above 100 µM in test [3]; above 100 µM in test [4]; 39.1 µM in [5]; above 100 µM in test [6]. Moreover, the TGI in test [7], in test [8], in test [9], in test [10] and in test [11] was above 100 µM throughout.

For `Cc1cccc(C[C@@]2(SCc3ccccc3)C(C)(C)[C@@H]3CC[C@@]2(C)C3)n1`, the TGI worked out at 32.2 µM in [1]; 30.2 µM in test [2]; 40.2 µM in test [3]; 36.9 µM in [4]; 28.8 µM in test [5]; 46.2 µM in test [6]. Besides, the TGI in test [7] came to 51.4 µM; in [8], 33 µM; in test [9] it was 34.9 µM; in test [10], 34.4 µM; in test [11] it was 33.1 µM.

Regarding `CC(C)c1c(P(=O)(c2ccccc2)c2ccccc2)n(C)c2ccccc12`, the TGI in test [1], in test [2], in [3], in test [4], in [5] and in test [6] was above 100 µM each time. Besides, the TGI in test [8], in [9], in [10] and in test [11] was above 100 µM throughout.

Regarding `CO/N=C1/c2sccc2[C@H](NC(=O)CNC(=O)OC(C)(C)C)[C@@H]1O`, the TGI in [1], in test [2], in test [3], in [5], in test [6] and in [7] was above 100 µM each time. Moreover, the TGI in [8], in test [9], in test [10] and in test [11] was above 100 µM each time.

As to `COc1cc2c(cc1OC)C(=O)/C(=C/c1cc(C)c(O)c(C)c1)C2`, the TGI in test [1], in [2], in test [3], in [5], in test [6] and in test [7] was above 100 µM throughout. Also, the TGI was 40.1 µM in test [8], 13.5 µM in test [9], above 100 µM in test [10] and above 100 µM in [11].
